For data set [1] the following is noted: rat, in vivo. As for the experimental part:
Analog and Its 2′,3′-Carbonate Prodrugs The liver selectivity of an antiviral nucleoside, 2′-B-C-methyladenosine, and its 2′,3′-carbonate prodrugs was evaluated in the rat by comparing liver nucleotide concentrations to levels of a major metabolite in the plasma or to concentrations of extrahepatic nucleotides. An elevated liver selectivity index is an indication of improved liver targeting of the antiviral agent and reduced exposure to other organs that may be potential targets of toxicity.
At pre-specified times of 20 min, 1, 3, 5, 8, 16, and 24 hrs post dose, liver, heart, and thigh muscle samples (˜1 g) were harvested by freeze-clamping and homogenized in 3 volumes of ice-cold acetonitrile. Following centrifugation to clarify the homogenate, aliquots of the tissue extracts were evaporated to dryness on a Savant Speed-Vac Plus (1 hr, room temperature). The resulting dried residue was reconstituted with 100 μL of mobile phase and then analyzed for nucleotides by an LC-MS/MS method as described in Example I. In addition to solid tissue, blood was collected in heparin tubes at the pre-specified times and centrifuged to obtain plasma. The plasma samples (100 μL) were extracted with 1.5 volumes of methanol and centrifuged for 20 min at top speed on a microfuge. Plasma concentrations of a major metabolite of 2′-B-C-methyladenosine, i.e., 2′-B-C-methylinosine, were determined by LC-UV as described in Example E.
The area under the curve (AUC) to the last measurable time point was calculated by trapezoidal summation of the liver, heart, and muscle concentration-time profile of total nucleotides and NTP and of the plasma concentration-time profile of the major metabolite 2′-B-C-methylinosine. The liver selectivity index was determined by two methods: (1) dividing liver NTP AUC by heart nucleotide AUC and (2) dividing liver NTP AUC by plasma 2′-3-C-methylinosine AUC.

Data set [2] in a line: Oral bioavailability in the rat based on liver nucleotide concentrations. As for the experimental part:
At pre-specified times of 20 min, 1, 3, 5, 8, 16, and 24 hrs post dose, liver samples (˜1 g) were collected by freeze-clamping and homogenized in 3 volumes of ice-cold 60% acetonitrile. Following centrifugation to clarify the homogenate, aliquots of the supernatants (100 μL) were evaporated to dryness on a Savant Speed-Vac Plus (1 hr, room temperature). The resulting dried residue was reconstituted with 100 μL of mobile phase and then analyzed for nucleotides by an LC-MS/MS method as described below.
The reconstituted extracts in mobile phase A (20 mM N,N-dimethylhexylamine and 10 mM propionic acid in 20% methanol) were analyzed by LC-MS/MS (Applied Biosystems, API 4000) equipped with an Agilent 1100 binary pump and a LEAP injector. […] Where possible, the quantitative analysis of liver NMP, NDP, and NTP were calculated based on a calibration curve generated from their respective standards (0.01-30 μM).
The area under the curve (AUC) to the last measurable time point were calculated by trapezoidal summation of the liver concentration-time profile of total nucleotides and NTP. The OBAV was determined by dividing the dose-normalized AUC following oral administration by the AUC following IV dosing.

The nature of data set [3]: Susceptibility to non-productive metabolism (deamination) in vitro in rat whole blood or plasma. The format is in vitro ADME. As for the experimental part: The susceptibility of 2′-β-C-methyladenosine, and its 2′,3′-carbonate prodrugs to non-productive metabolism was evaluated in vitro and in vivo. […] Aliquots of the blood and plasma samples were removed periodically and extracted with perchloric acid and methanol, respectively, and then centrifuged. The acidic supernatants were neutralized with potassium carbonate and recentrifuged. […] Analysis (50 μL) was performed on an Agilent Zorbax SB-Aq column (4.6×150 mm) eluted with a gradient consisting of a mixture of Buffer A (20 mM potassium phosphate pH 6.2) and Buffer B (acetonitrile) (0-10 min, 0-10%; 10-20 min, 10-80%, 20-21 min, 80-0%; 21-30 min, 0-0%) and UV absorbance monitoring at 265 nm. The flow rate was 1.5 mL/min and the column temperature was set at 40° C. Concentrations of metabolite were determined from calibration curves prepared by spiking known amounts of standards to plasma and processing as before.

Another data set relates to HCV. In words: Antiviral activity in HCV-infected human liver slice assay. It is filed as cell-based, hepatitis C virus. Particulars: HCV RNA in culture media. As for the experimental part: The effect of various compounds on HCV replication in human liver tissue was evaluated as described below.
Liver from a brain-dead HCV antibody-positive human patient was perfused with ice-cold Viaspan (Dupont Pharmaceutical) preservation solution and received on ice in Viaspan.
Precision-cut liver slices of ˜200-250 μm thickness and […] diameter were prepared and cultured in Waymouth's cell culture medium (Gibco, Inc.) that was supplemented with 10% fetal bovine serum and 10 mL/L Fungi-Bact at 37° C., and gassed with carbogen (95% O2, 5% CO2) at 0.75 liters/min. Tissue slices were maintained in culture for 72 h. Cell culture medium containing test compound in solution was changed on a daily basis.
At appropriate times of liver slice incubation, liver slices and medium were collected for analysis of HCV RNA (tissue and medium) and nucleotide levels (NTP). All collected media and tissue slices were maintained in liquid N2 until analysis.
Medium and tissue samples were analyzed for HCV RNA levels according to published procedures (Bonacini et. al., 1999) which utilize an automated, multicycle, polymerase chain reaction (PCR)-based technique. This assay has a lower limit of detection for HCV RNA of 100 viral copies/ml. Frozen liver slices were disrupted by using a combination of ultrasound probe sonication, Branson Sonifier 450 (Branson Ultrasonics, Danbury, Conn.) and homogenization using a Dounce conical pestle in 200 μls of 10% (v/v) perchloric acid (PCA). After a 5 min centrifugation at 2,500×g, the supernatants were neutralized using 3 M KOH/3 M KHCO3 and mixed thoroughly. The neutralized samples were centrifuged at 2,500 g for 5 min and NTP levels were determined by ion exchange phase HPLC (Hewlett Packard 1050) using a Whatman Partisil 5 SAX (5 μm, 4.6×250 mm) column. Samples (50 μL) were injected onto the column in 70% 10 mM ammonium phosphate buffer and 30% 1 M ammonium phosphate buffer, both at pH 3.5 and containing 6% ethanol. Nucleoside triphosphates were eluted from the column using a linear gradient to 80% 1 M ammonium phosphate pH 3.5/6% ethanol buffer, at a flow rate of 1.25 mL/min and detected by UV absorbance (254 nm).

Data set [4] is described as follows: Susceptibility to non-productive metabolism in vivo: 2′-β-C-methylinosine AUC in rat plasma and tissues. Particulars: male, Sprague-Dawley. The arrangement: species or system male Sprague-Dawley rats. As for the experimental part: The susceptibility of 2′-β-C-methyladenosine, and its 2′,3′-carbonate prodrugs to non-productive metabolism was evaluated in vitro and in vivo. […] Also at the pre-specified times, blood (heparinized) was collected from the vena cava and centrifuged briefly to obtain plasma. […] The supernatant was then analysis for deaminated products and other metabolites by LC-UV as described above.

Data set [5] is described as follows: Kinetics of conversion of HepDirect-carbonate prodrugs to nucleoside monophosphates by human liver microsomes. It is filed as in vitro ADME. Particulars: activation to NMP, Lineweaver-Burke plot. As for the experimental part:
The kinetics of activation of prodrug analogues to NMP were evaluated in the microsomal fraction of human liver.
Human liver microsomes were purchased from In Vitro Technologies. The study was performed at 2 mg/mL human liver microsomes, 100 mM KH2PO4, 10 mM glutathione, 0-250 μM compound, and 2 mM NADPH for 0-7.5 min. in an Eppendorf Thermomixer 5436 (37° C., 850 rpm). The reactions were initiated by addition of NADPH following a 2-min. preincubation. Reactions were quenched with 60% methanol at 0, 2.5, 5, and 7.5 min. The resulting extracts were clarified by centrifugation at 14,000 rpm in an Eppendorf microfuge (20 min.). The supernatants (200 μL) were evaporated under vacuum and, heat to dryness. The dried residue was reconstituted with 200 μL of water and the mixture was centrifuged for 10 min at 14,000 rpm. […] NMP was detected by using MS/MS mode (M^−/78.8) and quantified based on comparison to a standard of lamivudine monophosphate. Kinetic parameters were determined from a Lineweaver-Burke plot of the data with use of SigmaPlot 9.0 software.

Read-outs that look alike come from different tables or passages of the source.

As for “2′-β-C-methyladenosine [reference compound]”, the “Liver NTP AUC” value in data set [1] is 15. Further, the “Plasma 2′-β-C-Methylinosine AUC” value in data set [1] is recorded as 11. For the same compound, in data set [1], the “Plasma concentrations of the main metabolite, 2′-B-C-methylinosine” value is listed as “detectable”. The “concentrations of nucleotides of 2′-methyladenosine in heart and muscle tissue” value in data set [1] is “measurable in heart and muscle tissue”. Moreover, the “ORAL BIOAVAILABILITY” value is less than 5% in data set [2] (dose-normalized liver nucleotide AUC oral / IV) and 2% in data set [2] (dose-normalized liver nucleotide AUC oral / IV, listed as 2′-β-C-Methyladenosine). In addition, the “deaminated product (2′-β-C-methylinosine) after incubation in rat whole blood in vitro” value (“deaminated product … in vitro” below) in data set [3] (rat whole blood, 37° C.) is given as 2′-β-C-methylinosine was observed. Moreover, the “% decrease in viral RNA relative to untreated liver slices” value in the data set with HCV (0.25 μM) was 0%; in the data set with HCV (2.5 μM) it was 83%; in the data set with HCV (25 μM), 94%; in the data set with HCV (100 μM) it was 92%.
In the case of `C[C@@]12OC(=O)O[C@@H]1[C@@H](COP1(=O)OCC[C@@H](c3ccncc3)O1)O[C@H]2n1cnc2c(N)ncnc21` (some centres unmarked) [Compound 30.1], in data set [4], the “deaminated product 2′-B-C-methylinosine in plasma, liver, heart, and muscle tissue” value is on record as “no or only trace levels of the deaminated product were measurable”. In addition, in data set [1] (male, Sprague-Dawley), the “Heart Nucleotides AUC” value was determined as 2.6, the “Liver NTP AUC” value was determined as 841 and the “Plasma 2′-β-C-Methylinosine AUC” value was less than 7.1. Moreover, in data set [5], the Km came out at 64 µM and the maximal velocity (Vmax) was 0.36 nmol/min/mg. For the same compound, the “deaminated product … in vitro” value in data set [3] (rat) is given as “no deaminated products were detected”.
Regarding `CC1(C)C[C@@H](c2cccc(F)c2F)OP(=O)(OC[C@H]2O[C@@H](n3cnc4c(N)ncnc43)[C@]3(C)OC(=O)O[C@H]23)O1` (stereo partly drawn) [Compound 30.10, cis-5′-O-[6-(2,3-Difluorophenyl)-4,4-dimethyl-2-oxo-1,3,2-dioxaphosphorinan-2-y]-2′,3′-carbonyl-2′-C-methyl-adenosine], the “deaminated product 2′-B-C-methylinosine in plasma, liver, heart, and muscle tissue” value in data set [4] is “no or only trace levels of the deaminated product were measurable”. Besides, in data set [1] (male, Sprague-Dawley), the “Heart Nucleotides AUC” value is less than 2.8 and the “Plasma 2′-β-C-Methylinosine AUC” value is recorded as less than 7.1. Moreover, in data set [2] (male, Sprague-Dawley, in vivo), the “ORAL BIOAVAILABILITY” value was found to be 21%. In data set [5], the Michaelis constant (Km) was found to be 44.5 µM and the Vmax amounted to 0.12 nmol/min/mg. Further, in data set [3] (rat), the “deaminated product … in vitro” value is given as “no deaminated products were detected”.
`C[C@@]1(O)[C@H](O)[C@@H](COP2(=O)OCC[C@H](c3cccc(Cl)c3)O2)O[C@H]1n1ccc2c(N)ncnc21` (stereo partly drawn) [Example 16.1, 4-Amino-7-(cis-5′-O-[4-(3-chlorophenyl)-2-oxo-1,3,2-dioxaphosphorinan-2-yl]-2′-C-methyl-beta-D-ribofuranosyl)-7H-pyrrolo[2,3-d]pyrimidine] registered a melting point of 138 to 141 °C.
